# According to US20260144805A1, “CANNABIDIOL COMPOSITIONS FOR USE IN THE TREATMENT OF NEURODEGENERATIVE AND NEUROLOGICAL DISORDERS” (JAZZ PHARMACEUTICALS RESEARCH UK LIMITED, priority 2022, published 2026):
# Experiments:
# [1] = tested on: harmaline model of Essential Tremor; experiment: Harmaline model of Essential Tremor, subjective tremor score 0-4 (Example 3; DS = DS-D); assay type: in vivo, rat; conditions: Propranolol 40 mg/kg i.p.
# Description: All experiments were carried out in male Sprague Dawley rats (˜250 g). Naïve rats were acclimatised to the procedure room in their home cages up to 7 days following arrival at the test facility, with food and water available ad libitum. All animals were weighed at the beginning of the study and assigned to treatment groups (Vehicle n=6, treatment groups n=12/group).
# Animals were dosed and tested as per Table G below, across 3 test days. Treatment groups were equally allocated across the 3 days of testing. The animals received either vehicle, DS at 30, 100 or 150 mg/kg (1 mL/kg, i.p.) or propranolol at 40 mg/kg (5 mL/kg, i.p.) (Compound 1), the animals were then dosed with vehicle or Harmaline at 10 mg/kg (5 mL/kg, i.p.) (Compound 2). The animals received DS at 30, 100 or 150 mg/kg (1 mL/kg, i.p.) 40 or 100 min before harmaline, with the first test point 20 mins later to give a pre-treatment time at first test point of 60 and 120 mins. Propanolol was dosed 30 min before harmaline and tested 20, 40 and 60 mins post-harmaline. At all test points post-harmaline, the animals were observed and given a tremor score of 0-4 (as per Table H).
# Drug substance (i.e., DS-D, as described in Example 1) was formulated in 1:12:87 Ethanol, Kolliphor HS & Saline.
# Propranolol (40 mg/kg i.p.) served as a disease-relevant comparator.
# 30 mg/kg drug substance required 1 hr pre-treatment whilst 100 and 150 mg/kg drug substance required 2 hr pre-treatment.
# Behavioural observation data was analysed using a repeated measures two-way ANOVA followed by Dunnett's multiple comparison analysis (GraphPad, Prism v9.0.0) (p<0.05 considered significant).
# [2] = tested on: valproic acid-induced autism spectrum disorder (ASD) mouse model; experiment: Valproic acid-induced ASD model, autism-like behaviors, DS vs sCBD and risperidone (Example 6, Table P); assay type: in vivo; design: key to Adult open field hyperactivity (spontaneous LMA on day 1) / Adult open field hyperactivity (LMA on day 2) / Adult marble burying / Adult grooming / Juvenile vocalisation: +: improvement; Ø: no change; −: not tested
# Excerpt: (§1) The main objective of the following study was to assess the effect of the drug substance (DS) of Example 1 in ameliorating autism-like behavior in valproic acid-induced autism spectrum disorder (ASD) mouse model (FIGS. 19A-B).
# [3] = tested on: rat model of essential tremor; experiment: Harmaline rat model of essential tremor, observed tremor score (Example 4); assay type: in vivo; design: key to Observed tremor score, significance vs harmaline + vehicle: ns = not significant; *, **, ***, **** = statistical significance at p < 0.05, 0.01, 0.001, 0.0001 respectively; *, **, ***, **** = statistical significance at p < 0.05, 0.01, 0.001, 0.0001 respectively; *, **, ***, **** = statistical significance at p < 0.05, 0.01, 0.001, 0.0001 respectively; *, **, ***, **** = statistical significance at p < 0.05, 0.01, 0.001, 0.0001 respectively; conditions: for Observed tremor score, significance vs harmaline + vehicle: I.P.
# Excerpt: (§2) The following study was designed to assess the drug substance (DS) efficacy in the rat model of essential tremor. Synthetic CBD (sCBD I.P.) and DS I.P. and DS. P.O and compared observing tremor score, motion power percentage (MPP), tremor index (TI), number of tremors, total time spent in tremor, and average tremor length.
# (§3) The results are summarized in Tables J-M. All comparisons were made to the harmaline+vehicle group within each study.
# [4] = tested on: valproic acid-induced autism spectrum disorder (ASD) mouse model; experiment: Valproic acid-induced ASD model, bottle-brush test (irritability) (Example 6, Table P); assay type: in vivo; design: key: +: improvement; Ø: no change; −: not tested
# Excerpt: as §1
# [5] = tested on: valproic acid-induced autism spectrum disorder (ASD) mouse model; experiment: Valproic acid-induced ASD model, social behavior (Example 6, Table P); assay type: in vivo; design: key: +: improvement; Ø: no change; −: not tested
# Excerpt: as §1
# [6] = tested on: rat model of essential tremor; experiment: Harmaline rat model of essential tremor, tremor plate: motion power percentage, tremor index, number of tremors, time in tremor, tremor length (Example 4); assay type: in vivo; design: key to Motion Power Percentage, significance vs harmaline + vehicle / Number of tremors, significance vs harmaline + vehicle / Total time in tremor, significance vs harmaline + vehicle / Average tremor length, significance vs harmaline + vehicle: ns = not significant; *, **, ***, **** = statistical significance at p < 0.05, 0.01, 0.001, 0.0001 respectively; *, **, ***, **** = statistical significance at p < 0.05, 0.01, 0.001, 0.0001 respectively; *, **, ***, **** = statistical significance at p < 0.05, 0.01, 0.001, 0.0001 respectively; *, **, ***, **** = statistical significance at p < 0.05, 0.01, 0.001, 0.0001 respectively; conditions: for Average tremor length, significance vs harmaline + vehicle / Number of tremors, significance vs harmaline + vehicle / Total time in tremor, significance vs harmaline + vehicle / Motion Power Percentage, significance vs harmaline + vehicle: I.P.
# Excerpt: as §2, §3
structure (smiles),measurement,setting,value
CC(C)NCC(O)COc1cccc2ccccc12 (centres unmarked) [Propranolol],deficits induced by harmaline vs vehicle/harmaline group,"[1]; 20, 40 and 60 min post-harmaline",significantly attenuated
same,Tremor Score (median ± IQR),[1]; 20 mins post-harmaline,0.0 ± 0.0
same,Tremor Score (median ± IQR),[1]; 40 mins post-harmaline,0.0 ± 0.0
same,Tremor Score (median ± IQR),[1]; 60 mins post-harmaline,0.0 ± 0.75
"C=C(C)[C@@H]1CCC(C)=C[C@H]1c1c(O)cc(CCCCC)cc1O [sCBD, 2-[(1R,6R)-3-Methyl-6-(1-methylethenyl)-2-cyclohexen-1-yl]-5-pentyl-1,3-benzenediol]",Adult grooming,[2]; 9.21 mg/kg I.P.,+
same,Adult marble burying,[2]; 9.21 mg/kg I.P.,Ø
same,Adult open field hyperactivity (LMA on day 2),[2]; 9.21 mg/kg I.P.,Ø
same,Adult open field hyperactivity (spontaneous LMA on day 1),[2]; 9.21 mg/kg I.P.,+
same,Adult grooming,[2]; 27.63 mg/kg I.P.,+
same,Adult marble burying,[2]; 27.63 mg/kg I.P.,+
same,Adult open field hyperactivity (LMA on day 2),[2]; 27.63 mg/kg I.P.,+
same,Adult open field hyperactivity (spontaneous LMA on day 1),[2]; 27.63 mg/kg I.P.,+
same,Adult grooming,[2]; 92.11 mg/kg I.P.,+
same,Adult marble burying,[2]; 92.11 mg/kg I.P.,+
same,Adult open field hyperactivity (LMA on day 2),[2]; 92.11 mg/kg I.P.,+
same,Adult open field hyperactivity (spontaneous LMA on day 1),[2]; 92.11 mg/kg I.P.,+
same,Juvenile vocalisation,[2]; 92.11 mg/kg I.P.,+
same,minimum effective dose in social behavior and after the bottle-brush test (irritability),[2]; i.p.,92.11 mg/kg
same,Minimum dose (as CBD) decreasing the observed tremor score,"[3]; DS oral and intraperitoneal, sCBD i.p.",27 mg/kg
same,"Observed tremor score, significance vs harmaline + vehicle","[3]; dose 9.1 mg/kg, 20 min",ns
same,"Observed tremor score, significance vs harmaline + vehicle","[3]; dose 9.1 mg/kg, 40 min",ns
same,"Observed tremor score, significance vs harmaline + vehicle","[3]; dose 9.1 mg/kg, 60 min",ns
same,"Observed tremor score, significance vs harmaline + vehicle","[3]; dose 27.3 mg/kg, 20 min",ns
same,"Observed tremor score, significance vs harmaline + vehicle","[3]; dose 27.3 mg/kg, 40 min","* (*, **, ***, **** = statistical significance at p < 0.05, 0.01, 0.001, 0.0001 respectively)"
same,"Observed tremor score, significance vs harmaline + vehicle","[3]; dose 27.3 mg/kg, 60 min","* (*, **, ***, **** = statistical significance at p < 0.05, 0.01, 0.001, 0.0001 respectively)"
same,"Observed tremor score, significance vs harmaline + vehicle","[3]; dose 54.7 mg/kg, 20 min","** (*, **, ***, **** = statistical significance at p < 0.05, 0.01, 0.001, 0.0001 respectively)"
same,"Observed tremor score, significance vs harmaline + vehicle","[3]; dose 54.7 mg/kg, 40 min","* (*, **, ***, **** = statistical significance at p < 0.05, 0.01, 0.001, 0.0001 respectively)"
same,"Observed tremor score, significance vs harmaline + vehicle","[3]; dose 54.7 mg/kg, 60 min","* (*, **, ***, **** = statistical significance at p < 0.05, 0.01, 0.001, 0.0001 respectively)"
same,"Observed tremor score, significance vs harmaline + vehicle","[3]; dose 91.1 mg/kg, 20 min","* (*, **, ***, **** = statistical significance at p < 0.05, 0.01, 0.001, 0.0001 respectively)"
same,"Observed tremor score, significance vs harmaline + vehicle","[3]; dose 91.1 mg/kg, 40 min",ns
same,"Observed tremor score, significance vs harmaline + vehicle","[3]; dose 91.1 mg/kg, 60 min",ns
same,Adult bottle brush irritability test,[4]; 9.21 mg/kg I.P.,Ø
same,Juvenile bottle brush irritability test,[4]; 9.21 mg/kg I.P.,Ø
same,Adult bottle brush irritability test,[4]; 27.63 mg/kg I.P.,Ø
same,Juvenile bottle brush irritability test,[4]; 27.63 mg/kg I.P.,+
same,Adult bottle brush irritability test,[4]; 92.11 mg/kg I.P.,+
same,Juvenile bottle brush irritability test,[4]; 92.11 mg/kg I.P.,+
same,Adult active social behavior,[5]; 9.21 mg/kg I.P.,Ø
same,Juvenile play behavior,[5]; 9.21 mg/kg I.P.,Ø
same,Adult active social behavior,[5]; 27.63 mg/kg I.P.,Ø
same,Juvenile play behavior,[5]; 27.63 mg/kg I.P.,Ø
same,Adult active social behavior,[5]; 92.11 mg/kg I.P.,+
same,Juvenile play behavior,[5]; 92.11 mg/kg I.P.,+
same,"Average tremor length, significance vs harmaline + vehicle",[6]; dose 9.1 mg/kg,ns
same,"Number of tremors, significance vs harmaline + vehicle",[6]; dose 9.1 mg/kg,ns
same,"Total time in tremor, significance vs harmaline + vehicle",[6]; dose 9.1 mg/kg,ns
same,"Motion Power Percentage, significance vs harmaline + vehicle","[6]; dose 9.1 mg/kg, 20 min",ns
same,"Motion Power Percentage, significance vs harmaline + vehicle","[6]; dose 9.1 mg/kg, 40 min",ns
same,"Motion Power Percentage, significance vs harmaline + vehicle","[6]; dose 9.1 mg/kg, 60 min",ns
same,"Average tremor length, significance vs harmaline + vehicle",[6]; dose 27.3 mg/kg,ns
same,"Number of tremors, significance vs harmaline + vehicle",[6]; dose 27.3 mg/kg,ns
same,"Total time in tremor, significance vs harmaline + vehicle",[6]; dose 27.3 mg/kg,ns
same,"Motion Power Percentage, significance vs harmaline + vehicle","[6]; dose 27.3 mg/kg, 20 min",ns
same,"Motion Power Percentage, significance vs harmaline + vehicle","[6]; dose 27.3 mg/kg, 40 min",ns
same,"Motion Power Percentage, significance vs harmaline + vehicle","[6]; dose 27.3 mg/kg, 60 min",ns
same,"Average tremor length, significance vs harmaline + vehicle",[6]; dose 54.7 mg/kg,ns
same,"Number of tremors, significance vs harmaline + vehicle",[6]; dose 54.7 mg/kg,ns
same,"Total time in tremor, significance vs harmaline + vehicle",[6]; dose 54.7 mg/kg,ns
same,"Motion Power Percentage, significance vs harmaline + vehicle","[6]; dose 54.7 mg/kg, 20 min",ns
same,"Motion Power Percentage, significance vs harmaline + vehicle","[6]; dose 54.7 mg/kg, 40 min",ns
same,"Motion Power Percentage, significance vs harmaline + vehicle","[6]; dose 54.7 mg/kg, 60 min",ns
same,"Average tremor length, significance vs harmaline + vehicle",[6]; dose 91.1 mg/kg,ns
same,"Number of tremors, significance vs harmaline + vehicle",[6]; dose 91.1 mg/kg,ns
same,"Total time in tremor, significance vs harmaline + vehicle",[6]; dose 91.1 mg/kg,ns
same,"Motion Power Percentage, significance vs harmaline + vehicle","[6]; dose 91.1 mg/kg, 20 min",ns
same,"Motion Power Percentage, significance vs harmaline + vehicle","[6]; dose 91.1 mg/kg, 40 min",ns
same,"Motion Power Percentage, significance vs harmaline + vehicle","[6]; dose 91.1 mg/kg, 60 min","* (*, **, ***, **** = statistical significance at p < 0.05, 0.01, 0.001, 0.0001 respectively)"
same,Dose (as CBD) from which MPP and TI were significantly reduced,"[6]; intraperitoneal, sCBD only at one time point (60 min)",91 mg/kg
